Our source for the IC50 and inhibition values is ChEMBL document CHEMBL4680169, “Synthesis and bioevaluation of new vascular-targeting and anti-angiogenic thieno[2,3-d]pyrimidin-4(3H)-ones” (Eur J Med Chem, 2020).

A word on the IC50: it is the concentration needed to halve the response being measured.

For one experiment, the system named is KB-V1. Briefly: cells. It counts as functional, cell-based. The settings on record: Homo sapiens, KB-V1, 72 h.
The subject of experiment [1] is HCT-116. Nature of the experiment: cells. The experiment is classed as functional, cell-based. The settings on record: Homo sapiens, HCT-116, 72 h.
Description: Cytotoxicity against human HCT-116 p53 mutant cells assessed as inhibition of cell growth after 72 hrs by MTT assay
A further experiment has as its system EA.hy 926. Nature of the experiment: cells. Particulars: Homo sapiens, EA.hy 926, 72 h. The experiment is classed as functional, cell-based.
For experiment [2], the system named is HCT-116. Briefly: cells. The settings on record: Homo sapiens, HCT-116, 72 h. The experiment is classed as functional, cell-based. The source holds these as a separate data set.
Description: Cytotoxicity against wild type human HCT-116 cells assessed as inhibition of cell growth after 72 hrs by MTT assay
For the next experiment, the system named is 518A2. Nature of the experiment: cells. The settings on record: Homo sapiens, 518A2, 72 h. The experiment is classed as functional, cell-based.
For a further experiment, the species on record is Sus scrofa. Briefly: Inhibition of porcine brain tubulin polymerization at 10 uM measured at 20 sec interval for 2 hrs by turbidometric method.

SMILES strings stand for the structures. Active and inactive are the calls of the source. No cut-off for these calls is given here.

Description for 518A2: Cytotoxicity against human 518A2 cells assessed as inhibition of cell growth after 72 hrs by MTT assay
Description for EA.hy 926: Cytotoxicity against human EA.hy 926 cells assessed as inhibition of cell growth after 72 hrs by MTT assay
Description for KB-V1: Cytotoxicity against multidrug resistant human KB-V1 cells assessed as inhibition of cell growth after 72 hrs by MTT assay

As to `CCOC(=O)N1CCc2c(sc3nc(-c4cc(F)cc(F)c4)[nH]c(=O)c23)C1`, the 50% inhibitory concentration (IC50) with KB-V1 stood at 5300 nM; in the experiment on HCT-116 [1], 4200 nM; in the experiment with EA.hy 926, 4000 nM; in the experiment with HCT-116 [2], 1600 nM; in the experiment with 518A2 it was 5200 nM.
On to `C=CC(=O)N1CCc2c(sc3nc(-c4cc(Br)c(OC)c(OC)c4)[nH]c(=O)c23)C1`, for which the IC50 in the experiment on KB-V1 was determined as 1900 nM; in the experiment with HCT-116 [1], 4600 nM; in the experiment on EA.hy 926 it was 900 nM; in the experiment with HCT-116 [2] it was 4300 nM; in the experiment with 518A2 it was 700 nM.
For `O=c1[nH]c(-c2cccc(Br)c2)nc2sc3c(c12)CCCCC3` the same measures were over 100000 nM, over 100000 nM, over 100000 nM, over 100000 nM and over 100000 nM.
Regarding `COc1cc(-c2nc3sc4c(c3c(=O)[nH]2)CCNC4)cc(Cl)c1OC`, the IC50 in the experiment on KB-V1 is 17000 nM; in the experiment on HCT-116 [1] it was 10800 nM; with EA.hy 926, 6300 nM; with HCT-116 [2] it was over 100000 nM; in the experiment with 518A2 it was 16400 nM.
On to `COc1cc(-c2nc3sc4c(c3c(=O)[nH]2)CCNC4)cc(OC)c1OC`, for which the IC50 with KB-V1 is over 100000 nM; with HCT-116 [1], over 100000 nM; in the experiment with EA.hy 926, 100000 nM; in the experiment with HCT-116 [2], over 100000 nM; in the experiment on 518A2, over 100000 nM.
On to `COc1cc(-c2nc3sc4c(c3c(=O)[nH]2)CCNC4)cc(Br)c1OC`, for which the IC50 in the experiment on KB-V1 is 2000 nM; with HCT-116 [1], 7400 nM; in the experiment on EA.hy 926, 11500 nM; in the experiment with HCT-116 [2], 10600 nM; in the experiment with 518A2, 9300 nM.
For `COc1cc(-c2nc3sc4c(c3c(=O)[nH]2)CCCC4)cc(Cl)c1OC` the same measures were 300 nM, 1000 nM, 400 nM, 500 nM and 400 nM.
The like results for `COc1cc(-c2nc3sc4c(c3c(=O)[nH]2)CCCCC4)cc(Cl)c1OC` were, in that order, 700 nM, 800 nM, 200 nM, 300 nM and 700 nM.
In the case of `C=CC(=O)N1CCc2c(sc3nc(-c4cc(I)c(OC)c(OC)c4)[nH]c(=O)c23)C1`, the half-maximal inhibitory concentration (IC50) came out at 1200 nM with KB-V1; 700 nM in the experiment on HCT-116 [1]; 400 nM in the experiment on EA.hy 926; 2000 nM in the experiment with HCT-116 [2]; 200 nM in the experiment with 518A2. Also, the inhibition result in the experiment listed under Sus scrofa is “Active”.
Regarding `O=c1[nH]c(-c2cc(F)cc(F)c2)nc2sc3c(c12)CCCCC3`, the IC50 in the experiment on KB-V1, with HCT-116 [1], with EA.hy 926, in the experiment on HCT-116 [2] and in the experiment on 518A2 was over 100000 nM each time.
For the molecule `CCOC(=O)N1CCc2c(sc3nc(-c4cc(OC)c(OC)c(OC)c4)[nH]c(=O)c23)C1`, the IC50 came to 800 nM in the experiment on KB-V1; 500 nM with HCT-116 [1]; 200 nM with EA.hy 926; 600 nM in the experiment with HCT-116 [2]; 200 nM with 518A2.
On to `COc1cc(-c2nc3sc4c(c3c(=O)[nH]2)CCCCC4)cc(I)c1OC`, for which the IC50 in the experiment with KB-V1 amounted to 600 nM; with HCT-116 [1], 200 nM; with EA.hy 926, 200 nM; in the experiment on HCT-116 [2], 300 nM; in the experiment on 518A2, 200 nM.
Turning to `CCOC(=O)N1CCc2c(sc3nc(-c4ccc(OC)c(O)c4)[nH]c(=O)c23)C1`, the IC50 was 2200 nM in the experiment with KB-V1; 5600 nM with HCT-116 [1]; 4500 nM in the experiment on EA.hy 926; 1800 nM in the experiment with HCT-116 [2]; 2300 nM in the experiment with 518A2.
For `CCOC(=O)N1CCc2c(sc3nc(-c4cccc(C#N)c4)[nH]c(=O)c23)C1` the same measures were 7100 nM, 4300 nM, 12500 nM, 4900 nM and 4100 nM.
The like results for `N#Cc1cccc(-c2nc3sc4c(c3c(=O)[nH]2)CCCCC4)c1` were, in that order, 18200 nM, 1000 nM, 13100 nM, 3800 nM and 9400 nM.
The like results for `COc1c(Br)cc(-c2nc3sc4c(c3c(=O)[nH]2)CCCCC4)cc1Br` were, in that order, 1400 nM, 1000 nM, 1000 nM, 900 nM and 400 nM.
Regarding `COc1c(Br)cc(-c2nc3sc4c(c3c(=O)[nH]2)CCNC4)cc1Br`, the concentration for half-maximal inhibition (IC50) came to 6200 nM with KB-V1; 1500 nM with HCT-116 [1]; 1000 nM in the experiment with EA.hy 926; 1500 nM in the experiment on HCT-116 [2]; 5800 nM in the experiment on 518A2.
On to `CCOC(=O)N1CCc2c(sc3nc(-c4cc(Br)c(OC)c(OC)c4)[nH]c(=O)c23)C1`, for which the 50% inhibitory concentration (IC50) was found to be 300 nM with KB-V1; 500 nM in the experiment with HCT-116 [1]; 200 nM in the experiment with EA.hy 926; 400 nM with HCT-116 [2]; 500 nM in the experiment on 518A2.
Turning to `CCOC(=O)N1CCc2c(sc3nc(-c4cccnc4)[nH]c(=O)c23)C1`, the IC50 in the experiment on KB-V1 is 35200 nM; with HCT-116 [1], 39100 nM; in the experiment with EA.hy 926 it was 100000 nM; with HCT-116 [2], 32500 nM; in the experiment with 518A2, 80000 nM.
With `O=c1[nH]c(-c2cccc(Br)c2)nc2sc3c(c12)CCNC3`, the IC50 in the experiment on KB-V1 was 2200 nM; with HCT-116 [1] it was 1400 nM; with EA.hy 926, 1600 nM; in the experiment on HCT-116 [2], 1600 nM; with 518A2, 1700 nM.
As to `COc1ccc(-c2nc3sc4c(c3c(=O)[nH]2)CCNC4)cc1`, the IC50 with KB-V1 came to 6700 nM; in the experiment with HCT-116 [1], 2200 nM; in the experiment on EA.hy 926, 3800 nM; with HCT-116 [2], 4000 nM; in the experiment with 518A2, 3800 nM.
Turning to `COc1cc(-c2nc3sc4c(c3c(=O)[nH]2)CCCC4)cc(Br)c1OC`, the half-maximal inhibitory concentration (IC50) worked out at 300 nM with KB-V1; 500 nM in the experiment with HCT-116 [1]; 300 nM in the experiment on EA.hy 926; 400 nM in the experiment on HCT-116 [2]; 300 nM with 518A2.
For the molecule `O=c1[nH]c(-c2cc(F)cc(F)c2)nc2sc3c(c12)CCNC3`, the IC50 in the experiment with KB-V1 was 6500 nM; in the experiment with HCT-116 [1], 3600 nM; in the experiment with EA.hy 926, 5400 nM; in the experiment with HCT-116 [2], 6900 nM; with 518A2 it was 5700 nM.
For `COc1c(Br)cc(-c2nc3sc4c(c3c(=O)[nH]2)CCCC4)cc1Br` the same measures were 700 nM, 700 nM, 1000 nM, 800 nM and 2400 nM.
The like results for `COc1cc(-c2nc3sc4c(c3c(=O)[nH]2)CCN(C(C)=O)C4)cc(Br)c1OC` were, in that order, 2800 nM, 500 nM, 900 nM, 400 nM and 500 nM.
The like results for `COc1cc(-c2nc3sc4c(c3c(=O)[nH]2)CCCCC4)cc(Br)c1OC` were, in that order, 300 nM, 300 nM, 300 nM, 800 nM and 200 nM.
Turning to `N#Cc1cccc(-c2nc3sc4c(c3c(=O)[nH]2)CCCC4)c1`, the half-inhibitory concentration (IC50) came to 1900 nM in the experiment on KB-V1; 200 nM with HCT-116 [1]; 1200 nM in the experiment on EA.hy 926; 700 nM with HCT-116 [2]; 300 nM in the experiment on 518A2.
